# From PMC8151276, “An Integrated Approach toward NanoBRET Tracers for Analysis of GPCR Ligand Engagement” (Molecules, 2021)
# Target: T1, ADRA1B (Homo sapiens, UniProt P35368)
# T1 construct: purchased Promega (in-house HiBiT-GPCR construct library, NanoBRET)
# T1 sequence (P35368 1-520): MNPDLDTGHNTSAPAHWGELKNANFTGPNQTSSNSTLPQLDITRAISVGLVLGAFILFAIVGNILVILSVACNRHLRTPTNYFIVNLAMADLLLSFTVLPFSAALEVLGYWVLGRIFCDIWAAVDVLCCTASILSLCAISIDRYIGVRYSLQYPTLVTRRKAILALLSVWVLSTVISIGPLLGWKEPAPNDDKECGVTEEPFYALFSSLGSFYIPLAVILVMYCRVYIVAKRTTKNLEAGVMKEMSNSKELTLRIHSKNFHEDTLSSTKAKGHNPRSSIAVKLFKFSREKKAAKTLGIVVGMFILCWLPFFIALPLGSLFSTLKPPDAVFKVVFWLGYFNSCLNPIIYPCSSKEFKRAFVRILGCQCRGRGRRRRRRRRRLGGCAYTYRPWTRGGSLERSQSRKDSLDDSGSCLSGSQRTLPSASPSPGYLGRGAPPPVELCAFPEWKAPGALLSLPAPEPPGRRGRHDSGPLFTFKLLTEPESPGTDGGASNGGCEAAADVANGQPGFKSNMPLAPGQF
# Experiment: NanoBRET screen HiBiT-ADRA1B in HEK293
# Type: binding
# Description: Each tracer candidate was screened across the entire library of HiBiT-GPCR constructs using NanoBRET as the detection modality. As depicted in Figure 4A, the specificity of interactions was evaluated through decrease in BRET due to competitive displacement of a bound tracer by excess parental compound. Each tracer was analyzed for binding to each HiBiT-GPCR fusion in the absence and in the presence of competing parental compound. Briefly, HEK293 cells were transfected with HiBiT-GPCR constructs diluted into promoterless DNA to reduce expression and maximize translocation to the cell surface. Each tracer candidate was then screened at concentrations of 1 μM and 0.1 μM across cells expressing these fusions. Cells were treated for 1.5 h with tracer either alone or in the presence of 20 μM competing parental compound (i.e., control). BRET was measured upon addition of purified LgBiT and subsequent complementation with HiBiT genetically fused to a GPCR. The specificity of interactions was assessed through a decrease in BRET signal due to competitive displacement of the bound tracer. To further gauge the robustness of these interactions, the fold response over the control (i.e., BRETtracer/BRETcontrol) was calculated. We chose a 1.5-fold response, which translates to ≥7-fold signal over noise as the minimal threshold required to score an interaction as positive.
# HiBiT-GPCR DNA constructs were diluted in 10 mM Tris pH 8 to a final concentration of 0.01 μg/μL, arrayed in 96-well plates and stored at −20 °C. For transfection, HEK293 cells were suspended in Opti-MEM (without phenol red) supplemented with 2% fetal bovine serum (Seradigm) and 100 units/mL penicillin–streptomycin (Gibco) at a final concentration of 220,000 cells/mL and dispensed into white 96-well plates at 90 μL/well. Subsequent transfections and screens were carried using an Agilent Bravo Automated Liquid Handling Platform. First, the 96-well HiBiT DNA arrays were diluted 25-fold in Opti-MEM (without serum or phenol red) to a final concentration of 0.0004 μg/μL and 20 μL of the diluted DNAs were transferred into new 96-well plates. Next, promoterless carrier DNA (1 μg/μL) was diluted 25-fold (0.04 μg/μL) and then dispensed into the diluted arrays at 20 μL/well. Following brief mixing, Viafect transfection reagent (Promega) diluted 16-fold into Opti-MEM was dispensed into the plates at 40 μL/well. After mixing by pipetting, plates were incubated for 10 min on the pipetting station deck. The DNA-transfection reagent complexes were then added to plates containing cells. To facilitate the screen, 10 μL of DNA-transfection reagent complexes were added in duplicates to the top 4 and bottom 4 rows, resulting in two identical 48-well arrays per plate. Plates with transfected cells were incubated for 18–20 h at 37 °C/5% CO2. A screen of each tracer across the entire library using two different concentrations requires duplicate plates of transfected cells. Depending on the number of tracers being screened, transfections can be scaled up using the same ratios. The next day, for each tracer, four 20× screening solutions in tracer dilution buffer (Promega) were prepared: two duplicates at final concentration of 20 μM and two duplicates at a final concentration of 2 μM. […] The four resulting solutions were diluted 4-fold in Opti-MEM without serum or phenol red to generate 5× solutions (5 µM and 0.5 µM tracer +/− 100 μM competing compound). To screen the library, a BioTek MultiFlo FX liquid dispenser was used to dispense 22.5 µL of tracer solution to the top 4 rows and 22.5 µL tracer + competing compound solution to the 4 bottom rows. Plates were briefly mixed on an orbital shaker and incubated for 1.5 h at room temperature. […] Plates were briefly mixed on an orbital shaker and incubated for 15 min to allow complementation.
Structure (SMILES),"NanoBRET Fold Response (ADRA1B, tracer 0.1μM)","NanoBRET Fold Response (ADRA1B, tracer 1μM)",further results
CCOC(=O)c1cc(C#N)c(N2CCC(C(=O)NS(=O)(=O)Cc3ccccc3/C=C/C(=O)NCCNC(=O)CCc3ccc4n3[B-](F)(F)[N+]3=C(c5ccc[nH]5)C=CC3=C4)CC2)nc1C [AZD1283-1-NB590],–,–,"NanoBRET Fold Response (ADRA1B, 0.1μM): 1.08; NanoBRET Fold Response (ADRA1B, 1μM): 1.06"
N#CN/C(=N\CCNC(=O)c1ccc(N)cc1)NCCCOc1cccc(CN2CCCCC2)c1 [Aminopotentidine (unmodified)],–,–,"NanoBRET Fold Response (ADRA1B, other tracers/Aminopotentidine (unmodified), 0.1μM): 1.03; NanoBRET Fold Response (ADRA1B, other tracers/Aminopotentidine (unmodified), 1μM): 0.99"
N#CN=C(NCCCOc1cccc(CN2CCCCC2)c1)NCCNC(=O)CCOCCOCCOCCOCCNC(=O)CCc1ccc2n1[B-](F)(F)[N+]1=C(c3ccc[nH]3)C=CC1=C2 [Aminopotentidine-2-NB590],1.10,1.01,–
CN(C)CCC=C1c2ccccc2CCc2ccc(C(=O)NCCNC(=O)CCOCCOCCOCCOCCNC(=O)CCc3ccc4n3[B-](F)(F)[N+]3=C(c5ccc[nH]5)C=CC3=C4)cc21 [Amitriptyline-a-2-NB590],–,–,NanoBRET Fold Response (tracer at 0.1μM): 1.19; NanoBRET Fold Response (tracer at 1μM): 1.46
CN(C)CCC=C1c2ccccc2CCc2ccc(C(=O)NCCNC(=O)CCOCCOCCOCCOCCNC(=O)CCc3ccc4n3[B-](F)(F)[N+]3=C(c5ccc[nH]5)C=CC3=C4)cc21 [Amitriptyline-b-2-NB590],–,–,"NanoBRET Fold Response (tracer at 0.1μM, listed as amitriptyline-b-2-NB590): 1.73; NanoBRET Fold Response (tracer at 1μM, listed as amitriptyline-b-2-NB590): 1.67"
CN(CCC=C1c2ccccc2CCc2ccccc21)C(=O)CCOCCOCCOCCOCCNC(=O)CCc1ccc2n1[B-](F)(F)[N+]1=C(c3ccc[nH]3)C=CC1=C2 [Amitriptyline-e-2-NB590],–,–,NanoBRET Fold Response (tracer at 1μM): 1.04
COc1ccc2c(n1)c(CCNC(C)=O)cn2CCNC(=O)CCc1ccc2n1[B-](F)(F)[N+]1=C(c3ccc[nH]3)C=CC1=C2 [Azamelatonin-1-NB590],–,–,NanoBRET Fold Response (0.1μM tracer): 0.97; NanoBRET Fold Response (1μM tracer): 0.88
COc1ccc2[nH]c(-c3ccc(CNC(=O)CCOCCOCCOCCOCCNC(=O)CCc4ccc5n4[B-](F)(F)[N+]4=C(c6ccc[nH]6)C=CC4=C5)cc3)c(CCNC(C)=O)c2n1 [AzomelatoninICO9-2-NB590],–,–,NanoBRET Fold Response (0.1μM tracer): 0.91; NanoBRET Fold Response (1μM tracer): 0.97
O=C(CCOCCOCCOCCOCCNC(=O)CCc1ccc2n1[B-](F)(F)[N+]1=C(c3ccc[nH]3)C=CC1=C2)NCCCN1CCN(C2=Nc3cc(Cl)ccc3Nc3ccccc32)CC1 [Clozapine-a-2-NB590],–,–,"NanoBRET Fold Response (ADRA1B, 0.1μM tracer): 1.65; NanoBRET Fold Response (ADRA1B, 1μM tracer): 1.52"
O=C(CCOCCOCCOCCOCCNC(=O)CCc1ccc2n1[B-](F)(F)[N+]1=C(c3ccc[nH]3)C=CC1=C2)NCCCN1CCN(C2=Nc3ccccc3Oc3ccc(Cl)cc32)CC1 [Loxapine-a-2-NB590],1.78,1.54,–
COc1ccccc1N1CCN(CCCCN2C(=O)c3ccc(CNC(=O)CCOCCOCCOCCOCCNC(=O)CCc4ccc5n4[B-](F)(F)[N+]4=C(c6ccc[nH]6)C=CC4=C5)cc3C2=O)CC1 [NAN-190-2-NB590],1.80,1.59,–
COc1ccccc1N1CCN(CCCCN2C(=O)c3ccc(CNC(=O)CCOCCNC(=O)c4ccc(CNC(=O)CCc5ccc6n5[B-](F)(F)[N+]5=C(c7ccc[nH]7)C=CC5=C6)cc4)cc3C2=O)CC1 [NAN-190-3-NB590],1.70,1.72,–
O=C(CCc1ccc2n1[B-](F)(F)[N+]1=C(c3ccc[nH]3)C=CC1=C2)NCc1ccc(C(=O)NCCOCCC(=O)N[C@@H]2CC[C@@]3(O)[C@H]4Cc5ccc(O)c6c5[C@@]3(CCN4CC3CC3)[C@H]2O6)cc1 [Naltrexone-3-NB590],0.53,0.79,–
Cc1cc2c(s1)Nc1ccccc1N=C2N1CCN(CCCNC(=O)CCOCCOCCOCCOCCNC(=O)CCc2ccc3n2[B-](F)(F)[N+]2=C(c4ccc[nH]4)C=CC2=C3)CC1 [Olanzapine-a-2-NB590],1.26,1.98,–
O=C(CCc1ccc2n1[B-](F)(F)[N+]1=C(c3ccc[nH]3)C=CC1=C2)NCc1ccc(C(=O)NCCOCCOCCNCC(O)COc2cccc3ccccc23)cc1 (stereo not shown) [Propranolol-3-NB590],–,–,"NanoBRET Fold Response (ADRA1B, 0.1μM): 1.14; NanoBRET Fold Response (ADRA1B, 1μM): 1.10"
O=C(CCc1ccc2n1[B-](F)(F)[N+]1=C(c3ccc[nH]3)C=CC1=C2)NCCOCCOCCNC(=O)OCCOCCN1CCN(C2=Nc3ccccc3Sc3ccccc32)CC1 [Quetiapine-a-2-NB590],1.52,1.59,–
CC(C)N(CC[C@H](c1ccccc1)c1cc(CCNC(=O)CCOCCOCCOCCOCCNC(=O)CCc2ccc3n2[B-](F)(F)[N+]2=C(c4ccc[nH]4)C=CC2=C3)ccc1O)C(C)C [Tolterodine-2-NB590],1.16,1.06,–
CC(C)N(CC[C@H](c1ccccc1)c1cc(CCNC(=O)c2ccc(CNC(=O)CCc3ccc4n3[B-](F)(F)[N+]3=C(c5ccc[nH]5)C=CC3=C4)cc2)ccc1O)C(C)C [Tolterodine-BZ-NB590],1.17,1.05,–
CCCn1c(=O)c2[nH]c(-c3ccc(OCC(=O)NCCNC(=O)CCOCCNC(=O)c4ccc(CNC(=O)CCc5ccc6n5[B-](F)(F)[N+]5=C(c7ccc[nH]7)C=CC5=C6)cc4)cc3)nc2n(CCC)c1=O [XAC-3-NB590],1.05,1.17,–
